IC50, Activity and inhibition data for two molecules are collected here from ChEMBL document CHEMBL1156429 (J Biol Chem, 2007).

The nature of assay [1]: Growth inhibition of mouse erythroleukemia cells after 24 hrs. Format: functional, cell-based. Particulars: Leukemia cell.
Assay [2] is described as follows: Growth inhibition of JAK2 V617F mutant expressing hematopoietic progenitor cells isolated from polycythemia vera patient by colony forming assay. Format: functional, cell-based. Particulars: Homo sapiens.
Assay [3] has as its system Polycythemia vera. Kind of assay: Growth inhibition of JAK2 V617F mutant expressing human polycythemia vera hematopoietic progenitor cells at 5 uM by erythroid burst-forming unit assay. Format: functional, cell-based.
For the next assay, the species on record is Homo sapiens. Kind of assay: Growth inhibition of normal human hematopoietic progenitor cells by colony forming assay. The assay is classed as functional.
The subject of the next assay is Jurkat. Kind of assay: Growth inhibition of human Jurkat cells after 24 hrs. The assay is classed as functional, cell-based.
Assay [4] in a line: Growth inhibition of JAK2 V617F mutant expressing human erythroleukemia cells after 24 hrs. Particulars: Leukemia cell. Format: functional, cell-based.
The subject of assay [5] is Polycythemia vera. Put plainly: Growth inhibition of JAK2 V617F mutant deficient human polycythemia vera hematopoietic progenitor cells at 5 uM by erythroid burst-forming unit assay. The assay is classed as functional, cell-based.
Assay [6] in a line: Inhibition of formation of erythroid burst-forming units in human polycythemia vera cells at 1 uM. Particulars: read-out: INH.

Structures can show the parent of a compound that is named as a salt. The source made the active and inactive calls. No cut-off for these calls is given here.

Turning to `C#Cc1cccc(Nc2ncnc3cc(OCCOC)c(OCCOC)cc23)c1` [ERLOTINIB], the IC50 in assay [1] worked out at 2000 nM; in assay [2], 5 µM; in the assay on Jurkat it was 2000 nM; in assay [4], 2000 nM. The outcome with Polycythemia vera [3] was Active. Also, the result in the assay listed under Homo sapiens and in the assay on Polycythemia vera [5] was inactive.

Consider `Cc1ccc(NC(=O)c2ccc(CN3CCN(C)CC3)cc2)cc1Nc1nccc(-c2cccnc2)n1` [IMATINIB MESYLATE], for which, in assay [6], the inhibition at 1 µM was determined as 73%.

Usually IC50 stands for the point on the concentration scale where inhibition reaches its midpoint.
